Test results taken from patent US20220213102A1, “DIAZEPINONE DERIVATIVES AS CAPSID ASSEMBLY MODULATORS” (Janssen Sciences Ireland Unlimited Company, priority 2019, published 2022).

System: HBV
Test: HBV replication inhibition assay (BDNA assay) in HepG2.2.15 cells
Assay type: cell-based
Settings: Hepatitis B virus, HepG2.2.15, 144 h, encapsidated HBV DNA in supernatant at day 6, BDNA QuantiGene assay
Procedure: HBV replication inhibition by the disclosed compounds were determined in cells infected or transfected with HBV or cells with stably integrated HBV, such as HepG2.2.15 cells (Sells et al. 1987). In this example, HepG2.2.15 cells were maintained in cell culture medium containing 10% fetal bovine serum (FBS), Geneticin, L-glutamine, penicillin and streptomycin. HepG2.2.15 cells were seeded in 96-well plates at a density of 40,000 cells/well and were treated with serially diluted compounds at a final DMSO concentration of 0.5% either alone or in combination by adding drugs in a checker box format. Cells were incubated with compounds for three days, after which medium was removed and fresh medium containing compounds was added to cells and incubated for another three days. At day 6, supernatant was removed and treated with DNase at 37° C. for 60 minutes, followed by enzyme inactivation at 75° C. for 15 minutes. Encapsidated HBV DNA was released from the virions and covalently linked HBV polymerase by incubating in lysis buffer (Affymetrix QS0010) containing 2.5 μg proteinase K at 50° C. for 40 minutes. HBV DNA was denatured by addition of 0.2 M NaOH and detected using a branched DNA (BDNA) QuantiGene assay kit according to manufacturer recommendation (Affymetrix). HBV DNA levels were also quantified using qPCR, based on amplification of encapsidated HBV DNA extraction with QuickExtraction Solution (Epicentre Biotechnologies) and amplification of HBV DNA using HBV specific PCR probes that can hybridize to HBV DNA and a fluorescently labeled probe for quantitation. In addition, cell viability of HepG2.2.15 cells incubated with test compounds alone or in combination was determined by using CellTitre-Glo reagent according to the manufacturer protocol (Promega). The mean background signal from wells containing only culture medium was subtracted from all other samples, and percent inhibition at each compound concentration was calculated by normalizing to signals from HepG2.2.15 cells treated with 0.5% DMSO using equation E1.
% inhibition=(DMSOave−Xi)/DMSOave×100% E1:
where DMSOave is the mean signal calculated from the wells that were treated with DMSO control (0% inhibition control) and Xi is the signal measured from the individual wells. EC50 values, effective concentrations that achieved 50% inhibitory effect, were determined by non-linear fitting using Graphpad Prism software (San Diego, Calif.) and equation E2.
Y=Ymin+(Ymax−Ymin)/(1+10(Log EC50−X)×HillSlope) E2:
where Y represents percent inhibition values and X represents the logarithm of compound concentrations.
Selected disclosed compounds were assayed in the HBV replication assay (BDNA assay), as described above, and a representative group of these active compounds is shown in Table 3.

SMILES	EC50
CN1CC(c2cc[nH]n2)Cn2nc3c(c2C1=O)CN(C(=O)Nc1ccc(F)c(Cl)c1)CC3 (stereo not shown) [Example 4, N-(3-Chloro-4-fluorophenyl)-10-methyl-11-oxo-8-(1H-pyrazol-3-yl)-3,4,8,9,10,11-hexahydro-1H-pyrido[4′,3′:3,4]pyrazolo[1,5-a][1,4]diazepine-2(7H)-carboxamide]	93 nM
CN1CC(c2nc[nH]n2)Cn2nc3c(c2C1=O)CN(C(=O)Nc1ccc(F)c(C#N)c1)CC3 (stereo not shown) [Example 1, N-(3-Cyano-4-fluorophenyl)-10-methyl-11-oxo-8-(1H-1,2,4-triazol-3-yl)-3,4,8,9,10,11-hexahydro-1H-pyrido[4′,3′:3,4]pyrazolo[1,5-a][1,4]diazepine-2(7H)-carboxamide]	> 4000 nM
CN1CC(c2nnn[nH]2)Cn2nc3c(c2C1=O)CN(C(=O)Nc1ccc(F)c(C#N)c1)CC3 (stereo not shown) [Example 3, N-(3-Cyano-4-fluorophenyl)-10-methyl-11-oxo-8-(1H-tetrazol-5-yl)-3,4,8,9,10,11-hexahydro-1H-pyrido[4′,3′:3,4]pyrazolo[1,5-a][1,4]diazepine-2(7H)-carboxamide]	> 4000 nM
CN1CC(c2ccnn2C)Cn2nc3c(c2C1=O)CN(C(=O)Nc1ccc(F)c(C#N)c1)CC3 (stereo not shown) [Example 6, N-(3-Cyano-4-fluorophenyl)-10-methyl-8-(1-methyl-1H-pyrazol-5-yl)-11-oxo-3,4,8,9,10,11-hexahydro-1H-pyrido[4′,3′:3,4]pyrazolo[1,5-a][1,4]diazepine-2(7H)-carboxamide]	83 nM
CN1CC(O)(c2ccccc2)Cn2nc3c(c2C1=O)CN(C(=O)Nc1ccc(F)c(C#N)c1)CC3 (stereo not shown) [Example 15, N-(3-Cyano-4-fluoro-phenyl)-11-hydroxy-13-methyl-14-oxo-11-phenyl-4,8,9,13-tetrazatricyclo[7.5.0.0^2,7]tetradeca-1,7-diene-4-carboxamide]	140 nM
CN1CC(c2ncno2)Cn2nc3c(c2C1=O)CN(C(=O)Nc1ccc(F)c(C#N)c1)CC3 (stereo not shown) [Example 2, N-(3-Cyano-4-fluorophenyl)-10-methyl-8-(1,2,4-oxadiazol-5-yl)-11-oxo-3,4,8,9,10,11-hexahydro-1H-pyrido[4′,3′:3,4]pyrazolo[1,5-a][1,4]diazepine-2(7H)-carboxamide]	> 4000 nM
CN1CC(F)(c2ccccc2)Cn2nc3c(c2C1=O)CN(C(=O)Nc1ccc(F)c(C#N)c1)CC3 (stereo not shown) [Example 16, N-(3-Cyano-4-fluorophenyl)-8-fluoro-10-methyl-11-oxo-8-phenyl-3,4,8,9,10,11-hexahydro-1H-pyrido[4′,3′:3,4]pyrazolo[1,5-a][1,4]diazepine-2(7H)-carboxamide]	176 nM
